Source: patent US12052991B2, “Substituted pyridinyloxybenzenes and salts thereof and use thereof as herbicidal agents” (Bayer Aktiengesellschaft, priority 2018, dated 2024)

Assays:
Format in all cases: in vivo
[1] = tested on: Diplotaxis tenuifolia (DIPTE); test: Herbicidal early post-emergence action (Table A5); conditions: 1900 g/ha; scored visually 9 to 12 days after treatment; 100% = plants have died, 0% = like control plants
Method: (§1) Seeds of monocotyledonous and dicotyledonous weed plants were placed in 96-well microtiter plates in quartz sand and grown in a climatized chamber under controlled growth conditions. 5 to 7 days after sowing, the test plants were treated at the cotyledon stage. The compounds according to the invention, formulated in the form of emulsion concentrates (EC), were applied with a water application rate of the equivalent of 2200 liters per hectare. After the test plants had been left to stand in the climatized chamber for 9 to 12 days under optimum growth conditions, the effect of the preparations was scored visually in comparison to untreated controls. For example, 100% activity=the plants have died, 0% activity=like control plants. Tables A1 to A8 below show the effects of selected compounds of the general formula (I) according to Table 1 on various harmful plants and an application rate corresponding to 1900 g/ha, which were obtained by the experimental procedure mentioned above.

[2] = tested on: harmful plants AGSTE, DIPTE, LOLPE, MATCH, POAAN, SETVI, STEME and VERPE; test: Herbicidal early post-emergence action, summary of Tables A1-A8; conditions: application rate of 1900 g of active ingredient per hectare; summary in words
Method: as §1, with “plants.” for “plants. Tables A1 to A8 below show the effects of selected compounds of the general formula (I) according to Table 1 on various harmful plants and an application rate corresponding to 1900 g/ha, which were obtained by the experimental procedure mentioned above.”
Tables A1 to A8 below show the effects of selected compounds of the general formula (I) according to Table 1 on various harmful plants and an application rate corresponding to 1900 g/ha, which were obtained by the experimental procedure mentioned above.
As the results of Tables A1-A8 show, compounds no.

Agrostis tenuis (AGSTE) = test: Herbicidal early post-emergence action (Table A1); conditions: 1900 g/ha; scored visually 9 to 12 days after treatment; 100% = plants have died, 0% = like control plants
Method: as §1

Setaria viridis (SETVI) = test: Herbicidal early post-emergence action (Table A4); conditions: 1900 g/ha; scored visually 9 to 12 days after treatment; 100% = plants have died, 0% = like control plants
Method: as §1

Stellaria media (STEME) = test: Herbicidal early post-emergence action (Table A7); conditions: 1900 g/ha; scored visually 9 to 12 days after treatment; 100% = plants have died, 0% = like control plants
Method: as §1

[3] = tested on: Matricaria chamonilla (MATCH); test: Herbicidal early post-emergence action (Table A6); conditions: 1900 g/ha; scored visually 9 to 12 days after treatment; 100% = plants have died, 0% = like control plants
Method: as §1

Lolium perenne (LOLPE) = test: Herbicidal early post-emergence action (Table A2); conditions: 1900 g/ha; scored visually 9 to 12 days after treatment; 100% = plants have died, 0% = like control plants
Method: as §1

Poa annua (POAAN) = test: Herbicidal early post-emergence action (Table A3); conditions: 1900 g/ha; scored visually 9 to 12 days after treatment; 100% = plants have died, 0% = like control plants
Method: as §1

Veronica persica (VERPE) = test: Herbicidal early post-emergence action (Table A8); conditions: 1900 g/ha; scored visually 9 to 12 days after treatment; 100% = plants have died, 0% = like control plants
Method: as §1

SMILES: Fc1cccc(Oc2ncc(C(F)(F)F)cc2Cl)c1-c1cc(C(F)(F)F)on1 [Example 1-5]
- Early post-emergence effect against Diplotaxis tenuifolia (DIPTE) [1]: 80%
- herbicidal activity against the harmful plants of Tables A1-A8 in early post-emergence treatment [2]: very good herbicidal activity

SMILES: Fc1cccc(Oc2ccccn2)c1-c1cc(C(F)F)on1 [Example 1-8]
- Early post-emergence effect against Diplotaxis tenuifolia (DIPTE) [1]: 80%
- herbicidal activity against the harmful plants of Tables A1-A8 in early post-emergence treatment [2]: very good herbicidal activity
- Early post-emergence effect against Agrostis tenuis (AGSTE) (Agrostis tenuis (AGSTE)): 80%

SMILES: Fc1cccnc1Oc1cccc(F)c1-c1cc(C(F)F)on1 [Example 1-14]
- Early post-emergence effect against Diplotaxis tenuifolia (DIPTE) [1]: 80%
- herbicidal activity against the harmful plants of Tables A1-A8 in early post-emergence treatment [2]: very good herbicidal activity

SMILES: Cn1nc(C(F)F)cc1-c1cc(F)ccc1Oc1ccc(Cl)cn1 [Example 1-32]
- Early post-emergence effect against Diplotaxis tenuifolia (DIPTE) [1]: 80%
- herbicidal activity against the harmful plants of Tables A1-A8 in early post-emergence treatment [2]: very good herbicidal activity
- Early post-emergence effect against Agrostis tenuis (AGSTE) (Agrostis tenuis (AGSTE)): 80%

SMILES: FC(F)(F)c1cccc(-c2ccccc2Oc2ccc(Cl)cn2)n1 [Example 1-49]
- Early post-emergence effect against Setaria viridis (SETVI) (Setaria viridis (SETVI)): 100%
- herbicidal activity against the harmful plants of Tables A1-A8 in early post-emergence treatment [2]: very good herbicidal activity
- Early post-emergence effect against Stellaria media (STEME) (Stellaria media (STEME)): 80%

SMILES: Cc1ccc(Oc2ccccc2-c2cccc(C(F)(F)F)n2)nc1 [Example 1-51]
- Early post-emergence effect against Matricaria chamonilla (MATCH) [3]: 80%
- herbicidal activity against the harmful plants of Tables A1-A8 in early post-emergence treatment [2]: very good herbicidal activity

SMILES: Cc1cc(C)c(-c2cc(C(F)F)no2)c(Oc2ccc(Cl)cn2)c1 [Example 1-78]
- Early post-emergence effect against Lolium perenne (LOLPE) (Lolium perenne (LOLPE)): 80%
- Early post-emergence effect against Poa annua (POAAN) (Poa annua (POAAN)): 100%
- herbicidal activity against the harmful plants of Tables A1-A8 in early post-emergence treatment [2]: very good herbicidal activity
- Early post-emergence effect against Agrostis tenuis (AGSTE) (Agrostis tenuis (AGSTE)): 100%

SMILES: Cn1nc(-c2c(F)cccc2Oc2ncccc2F)cc1C(F)F [Example 1-84]
- Early post-emergence effect against Veronica persica (VERPE) (Veronica persica (VERPE)): 80%
- herbicidal activity against the harmful plants of Tables A1-A8 in early post-emergence treatment [2]: very good herbicidal activity

SMILES: Cc1cc(F)c(-c2cc(C(F)F)no2)c(Oc2ccc(Cl)cn2)c1 [Example 1-88]
- Early post-emergence effect against Setaria viridis (SETVI) (Setaria viridis (SETVI)): 80%
- Early post-emergence effect against Poa annua (POAAN) (Poa annua (POAAN)): 100%
- herbicidal activity against the harmful plants of Tables A1-A8 in early post-emergence treatment [2]: very good herbicidal activity
- Early post-emergence effect against Agrostis tenuis (AGSTE) (Agrostis tenuis (AGSTE)): 100%

SMILES: Cc1cc(-c2ccccc2Oc2ccc(Cl)cn2)ncn1 [Example 1-108]
- Early post-emergence effect against Matricaria chamonilla (MATCH) [3]: 80%
- Early post-emergence effect against Poa annua (POAAN) (Poa annua (POAAN)): 80%
- herbicidal activity against the harmful plants of Tables A1-A8 in early post-emergence treatment [2]: very good herbicidal activity
- Early post-emergence effect against Agrostis tenuis (AGSTE) (Agrostis tenuis (AGSTE)): 80%

SMILES: Cc1cc(-c2ccccc2Oc2ncc(Cl)cc2F)ncn1 [Example 1-109]
- Early post-emergence effect against Diplotaxis tenuifolia (DIPTE) [1]: 80%
- Early post-emergence effect against Poa annua (POAAN) (Poa annua (POAAN)): 100%
- herbicidal activity against the harmful plants of Tables A1-A8 in early post-emergence treatment [2]: very good herbicidal activity
- Early post-emergence effect against Agrostis tenuis (AGSTE) (Agrostis tenuis (AGSTE)): 80%

SMILES: Fc1cc(Cl)cnc1Oc1ccccc1-c1cc(C(F)(F)F)no1 [Example 1-112]
- Early post-emergence effect against Matricaria chamonilla (MATCH) [3]: 80%
- Early post-emergence effect against Poa annua (POAAN) (Poa annua (POAAN)): 100%
- herbicidal activity against the harmful plants of Tables A1-A8 in early post-emergence treatment [2]: very good herbicidal activity
- Early post-emergence effect against Agrostis tenuis (AGSTE) (Agrostis tenuis (AGSTE)): 100%

SMILES: FC(F)(F)c1cc(-c2ccccc2Oc2ccc(Cl)cn2)on1 [Example 1-113]
- Early post-emergence effect against Matricaria chamonilla (MATCH) [3]: 80%
- Early post-emergence effect against Poa annua (POAAN) (Poa annua (POAAN)): 100%
- herbicidal activity against the harmful plants of Tables A1-A8 in early post-emergence treatment [2]: very good herbicidal activity
- Early post-emergence effect against Agrostis tenuis (AGSTE) (Agrostis tenuis (AGSTE)): 100%
